Patent publication US20210095322A1, “HIGH-PURITY STEVIOL GLYCOSIDES” (PureCircle USA Inc., priority 2018, published 2021)

Tests used:
[1] = Isosweet determination (2-AFC) vs sucrose in acidified water, sweetness potency; type: in vivo, human; conditions: pH = 3.2
Description: As an example, Reb AM was evaluated.

[2] = aqueous solution; Ref: Celaya et al (2016); cited from earlier work
[3] = FEMA GRAS publication; cited from earlier work

| SMILES | Sweetness Equivalent (ppm) in Water ([1]; 2.5% SE) [ppm] | Sweetness Potency in Water ([1]; 2.5% SE) [x sugar equivalent] | Sweetness Equivalent (ppm) in Water ([1]; 5.0% SE) [ppm] | Sweetness Potency in Water ([1]; 5.0% SE) [x sugar equivalent] | Solubility [2] [%] | Sweetness Perception Threshold Concentration [3] [ppm] |
| --- | --- | --- | --- | --- | --- | --- |
| C=C1C[C@@]23CC[C@H]4[C@@](C)(CCC[C@@]4(C)C(=O)O[C@@H]4O[C@H](CO)[C@@H](O)[C@H](O)[C@H]4O)[C@@H]2CC[C@]1(O[C@@H]1O[C@H](CO)[C@@H](O)[C@H](O[C@@H]2O[C@H](CO)[C@@H](O)[C@H](O)[C@H]2O)[C@H]1O[C@@H]1O[C@H](CO)[C@@H](O)[C@H](O)[C@H]1O)C3 [Reb A, rebaudioside A] | 94 | 266 | 299 | 167 | <0.7 | 30 |
| C=C1C[C@@]23CC[C@H]4[C@@](C)(CCC[C@@]4(C)C(=O)O[C@@H]4O[C@H](CO)[C@@H](O)[C@H](O)[C@H]4O)[C@@H]2CC[C@]1(O[C@@H]1O[C@H](CO)[C@@H](O)[C@H](O)[C@H]1O[C@@H]1O[C@H](CO)[C@@H](O)[C@H](O)[C@H]1O)C3 [Stevioside, stevioside] | – | – | – | – | <0.7 | – |
